{"source": "patent US12030929B2", "about": "“Fusobacterium nucleatum amyloid-like FadA for diagnosis and treatment of Fn-mediated pathogenesis” (The Trustees of Columbia University in the City of New York, priority 2021, dated 2024)", "key": {"Fn 12230 [1]": {"tested_on": "Fn 12230", "test": "Effects of Congo Red on Fn viability (OD600 and CFU)", "format": "cell-based, Fusobacterium nucleatum", "settings": "incubation 48 or 72 hrs", "description": "FIG. 10A-10B. 10A. Schematic illustration of preparation of detergent-resistant bacterial pellets and its use as scaffold for biofilm growth. 10B. Effects of Congo Red on Fn viability. Fn 12230 was incubated in PBS (top row), 10 mg/ml Congo Red (10 CR), or 50 mg/ml Congo Red (50 CR) for 48 hrs (left panel) or 72 hrs (right panel), followed by measurement of OD600 (OD) and viable counts (CFU)."}, "Fn 12230 [2]": {"tested_on": "Fn 12230", "test": "pH tolerance assay, wild-type Fn", "format": "cell-based, Fusobacterium nucleatum", "settings": "stationary phase; pH 4.0; 50 μg/ml Congo Red; 1 or 2 hours"}, "US1 (ΔfadA)": {"tested_on": "US1 (ΔfadA)", "test": "pH tolerance assay, fadA-deletion mutant", "format": "cell-based, Fusobacterium nucleatum", "settings": "stationary phase; pH 4.0; 50 μg/ml Congo Red; 1 or 2 hours"}, "HCT116 xenograft tumors": {"tested_on": "HCT116 xenograft tumors", "test": "CRC xenograft model", "format": "in vivo", "settings": "Fn 12230 washed in 1 mg/ml Congo Red, injected into tumors; IHC one week later; nude mice", "description": "FIG. 5A-5D. Amyloid-like FadA mediates colonization in CRC and promotes tumor growth in vivo. 5A. Analysis of Fn colonization in mouse xenograft tumors by IHC. An inoculum of 5×10^6 HCT116 cells was injected subcutaneously and bilaterally into the nude mice. Once the tumors became visible (after 3-4 days), approximately 5×10^6 CFU of Fn 12230 washed in PBS or 1 mg/ml Congo Red (CR) were injected into the tumors. The tumors were extracted one week later, and the formalin-fixed and embedded (FFPE) tissues were stained with mAb 7H7. Note the brown stains in tumor injected with PBS-washed tumor, but not in CR-washed tumor. 5B. Effects of secreted amyloid-like FadA on tumor growth. HCT116 cells were injected into the nude mice as described above, followed by injection of 5×10^6 CFU of Fn 12230 (Fn, n=7), lam (n=3) or US1 (ΔfadA, n=4). The tumor volumes were measured immediately before bacteria injection (Day 0, designated as 100%), and at 3 days after injection (Day 3). The horizontal lines represent averages of tumor volumes (left panel). The individual tumors are shown (right panel). **p<0.01, ***p<0.001 (t-test). 5C. […] The tumor volumes were measured on Day 0 and Day 5 as described above. […] The tumor volumes were measured described above. […]\nCRC xenograft model. […] The tumor length and width were measured using calipers and tumor volumes were calculated using the following formula: Volume=(width)2×length/2. […]"}}, "data": [{"smiles": "Nc1c(/N=N/c2ccc(-c3ccc(/N=N/c4cc(S(=O)(=O)O)c5ccccc5c4N)cc3)cc2)cc(S(=O)(=O)O)c2ccccc12", "note": "[Congo Red]", "values": [{"measurement": "viability of Fn", "setting": "Fn 12230 [1]", "result": "without affecting the viability of Fn"}, {"measurement": "viability of wild-type Fn in acidic environment", "setting": "Fn 12230 [2]", "result": "drastically reduced viability of wild-type Fn to the similar levels as US1"}, {"measurement": "viability of US1 (ΔfadA) in acidic environment", "setting": "US1 (ΔfadA)", "result": "without affecting US1 (ΔfadA)"}, {"measurement": "Fn colonization in xenograft tumors", "setting": "HCT116 xenograft tumors", "result": "significantly inhibited Fn colonization in xenograft tumors"}]}]}
